One molecule from patent US20060135607A1, “Drug for improving prognosis for subarachnoid hemorrhage” (MOCHIDA PHARMACEUTICAL CO., LTD., priority 2003, published 2006) can be followed below.

This data set deals with patients with subarachnoid hemorrhage. Put plainly: Clinical study of postoperative EPA administration in patients with subarachnoid hemorrhage caused by ruptured aneurysm (GOS, survival, adverse events). Format: in vivo, human. An excerpt: Sixty four patients with subarachnoid hemorrhage caused by the ruptured aneurysm and subjected to surgical operations by the third day after onset (22 males and 42 females of the ages from 30's-80's) were divided into two groups (each having 32 individuals) designated as an EPA-administration group and an EPA-non-administration group. In addition, no difference was recognized in their background factors of both groups. Just after the operation, the EPA administration group received the administration of ethyl eicosapentaenoate (trade name: Epadel, manufactured by Mochida Pharmaceutical Co., Ltd.), 1,800 mg divided in three-doses a day for 14 days. Subsequently, the administration was continued during the hospital stay. At the stage of being impossible to dietary intake, tube-feedings were carried out. EPA suspended in hot water was administered through a stomach tube (Magen Sonde). At that time, for enhancing the absorption of EPA, 50 mg of Urso granule (manufactured by Mitsubishi Pharma Corporation) was administered through the stomach tube 15 minutes before EPA administration. At the stage of being possible to dietary intake, a commercial EPA preparation was administered orally. Furthermore, both groups were treated in combination with basic treatments on subarachnoid hemorrhage. However, some of the drugs were defined as prohibited substances. At the 30th day from the onset of subarachnoid hemorrhage, an evaluation was carried out by the Glasgow Outcome Scale (GOS).

Where [1] appears, read: 30th day from onset, 32 patients per group, 1,800 mg/day.
Setting [2] is: 32 patients per group, 1,800 mg/day.

Each structure is given as a SMILES string.

As to `CC/C=C\C/C=C\C/C=C\C/C=C\C/C=C\CCCC(=O)OCC` [EPA, ethyl eicosapentaenoate], under setting [1], the “GOS: D (Death), number of patients” value is reported as 1; the “GOS: MD (Moderate disability), number of patients” value was 6; the “GOS: SD (Severe disability), number of patients” value turned out to be 2; the “GOS: VS (Vegetative state), number of patients” value is listed as 2. In addition, under “30th day from onset, 32 patients per group, 1,800 mg/day in three doses, oral or stomach tube, Wilcoxon U test P=0.0128 vs non-administration group”, the “GOS: GR (Good recovery), number of patients” value came to 21. Also, under setting [2], the “Death, number of patients” value is given as 1 and the “Survival, number of patients” value turned out to be 31. The Survival rate (32 patients per group, 1,800 mg/day, Fisher's exact test P=0.0265 vs non-administration group) was determined as 97%. Besides, the “Adverse event considered as a result of the EPA administration” value (subarachnoid hemorrhage patients, 1,800 mg/day for 14 days and continued during hospital stay) is “not found”.
